# Reference: patent US20170184612A1, “USE OF LEUKOCYTES AND NOVEL BIOMARKERS IN THE DIAGNOSIS, CONFIRMATION, AND TREATMENT OF A NEUROLOGICAL DISORDER” (The Trustees of Columbia University in the City of New York, priority 2014, published 2017)
# Assays:
# [1] = tested on: peripheral blood mononuclear cells (PBMC), T cells; assay: ELISpot assay, IL-5 release (SFC) after stimulation with a-synuclein epitope pools; type: cell-based, human
# Summary of the method: (§1)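 Ficoll-isolated PBMC, PD vs age-matched controls, blinded; peptide pools (122 candidates + pS129 epitopes), 22 h, 37 C. Positive pools deconvoluted.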
# [2] = tested on: peripheral blood mononuclear cells (PBMC), T cells; assay: ELISpot assay, gamma-interferon release (SFC) after stimulation with a-synuclein epitope pools; type: cell-based, human; settings: for Pool +: IFNg, Pool Stimulated, number of donors with a positive response, Donors tested 1
# Summary of the method: as §1
# [3] = Patients Summary, PD patients, of donors tested (peptide)
# [4] = Patients Summary, PD patients, single peptide
# [5] = number of donors positive to the single peptide, second 'Pool Stimulated' section (from r296), 12 donors tested
# [6] = peptide + / donors tested (peptide), second 'Pool Stimulated' section (from r296), 12 donors tested
# [7] = single peptide, second 'Pool Stimulated' section (from r296), 12 donors tested
# [8] = Patients Summary, Phospho pool peptides
# [9] = Patients Summary, Phospho pool peptides, 10 donors tested
# [10] = peptides of pool 'Poshpho', 8 donors tested
# [11] = peptides of pool 'Poshpho', 8 donors tested, number of donors positive
Substance,"IL-g Peptide + (donors positive to the peptide) [1, 3]","IL-g Response Frequency [1, 4]","IL-g Total SFC [1, 4]","IL-g Peptide + [1, 5]","IL-g Response Frequency [1, 6]","IL-g Total SFC [1, 7]",Pool + [2],"IFNg Peptide + (donors positive to the peptide) [2, 3]","IFNg Response Frequency [2, 4]","IFNg Total SFC [2, 4]","IFNg Peptide + [2, 5]","IFNg Response Frequency [2, 6]","IFNg Total SFC [2, 7]","IL-g Avg SFC [1, 4]",other results
3521.0048 (EQVTNVGGAV; listed as Homo sapiens),0,0%,0 SFC,0,0%,0 SFC,0,0,0%,0 SFC,0,0%,0 SFC,–,–
3521.0044 (GVTAVAQKTV; listed as Homo sapiens),0,0%,0 SFC,0,0%,0 SFC,0,0,0%,0 SFC,0,0%,0 SFC,–,–
3521.0019 (APGKTKEGV; listed as Homo sapiens),0,0%,0 SFC,0,0%,0 SFC,0,0,0%,0 SFC,0,0%,0 SFC,–,–
3521.0068 (GVAEAPGKTK; listed as Homo sapiens),0,0%,0 SFC,0,0%,0 SFC,0,0,0%,0 SFC,0,0%,0 SFC,–,–
3521.0071 (YVGSKTKEGVVHGVT; listed as Homo sapiens),1,17%,35 SFC,–,–,–,0,0,0%,0 SFC,–,–,–,35 SFC,–
3521.0057 (NEEGAPQEGI; listed as Homo sapiens),0,0%,0 SFC,0,0%,0 SFC,0,0,0%,0 SFC,1,50%,26.7 SFC,–,"IFNg Avg SFC [2, 7]: 26.7 SFC"
3521.0029 (NVGGAVVTGV; listed as Homo sapiens),0,0%,0 SFC,0,0%,0 SFC,0,0,0%,0 SFC,0,0%,0 SFC,–,–
3521.0049 (APQEGILEDM; listed as Homo sapiens),0,0%,0 SFC,0,0%,0 SFC,0,0,0%,0 SFC,0,0%,0 SFC,–,–
3521.0076 (PGKTKEGVLYVGSKT; listed as Homo sapiens),1,13%,89 SFC,1,50%,120 SFC,1,2,25%,80 SFC,1,50%,300 SFC,89 SFC,"IL-g Avg SFC [1, 7]: 120 SFC; IFNg Avg SFC [2, 4]: 40 SFC; IFNg Avg SFC [2, 7]: 300 SFC"
3521.0022 (GSIAAATGF; listed as Homo sapiens),0,0%,0 SFC,0,0%,0 SFC,0,0,0%,0 SFC,0,0%,0 SFC,–,–
3521.0006 (VLYVGSKTK; listed as Homo sapiens),2,33%,168 SFC,–,–,–,0,5,83%,1519 SFC,–,–,–,84 SFC,"IFNg Avg SFC [2, 4]: 304 SFC"
3521.0027 (AYEMPSEEGY; listed as Homo sapiens),0,0%,0 SFC,0,0%,0 SFC,0,0,0%,0 SFC,0,0%,–,–,"IL-g Avg SFC [1, 8]: 530 SFC; IL-g Response Frequency [1, 8]: 20%; IL-g Total SFC [1, 8]: 1060 SFC; IL-g Peptide + (donors positive to the peptide) [1, 9]: 2; IL-g Avg SFC [1, 10]: 87 SFC; IL-g Response Frequency [1, 10]: 13%; IL-g Total SFC [1, 10]: 87 SFC; IL-g Peptide + [1, 11]: 1; Pool + ([2]; pool 'Phospho' (phosphorylated peptides)): 1; IFNg Avg SFC [2, 8]: 700 SFC; IFNg Response Frequency [2, 8]: 20%; IFNg Total SFC [2, 8]: 1400 SFC; IFNg Peptide + (donors positive to the peptide) [2, 9]: 2; IFNg Avg SFC [2, 10]: 53 SFC; IFNg Response Frequency [2, 10]: 13%; IFNg Total SFC [2, 10]: 53 SFC; IFNg Peptide + [2, 11]: 1"
3521.0015 (KTKEQVTNV; listed as Homo sapiens),0,0%,0 SFC,0,0%,0 SFC,0,0,0%,0 SFC,0,0%,0 SFC,–,–
3521.003 (GSIAAATGFV; listed as Homo sapiens),1,25%,40 SFC,0,0%,0 SFC,0,0,0%,0 SFC,0,0%,0 SFC,40 SFC,–
3521.0059 (AEAAGKTKEG; listed as Homo sapiens),1,13%,71 SFC,0,0%,0 SFC,1,0,0%,0 SFC,1,50%,120 SFC,71 SFC,"IFNg Avg SFC [2, 7]: 120 SFC"
3521.005 (APGKTKEGVL; listed as Homo sapiens),2,25%,137 SFC,0,0%,0 SFC,0,1,13%,44 SFC,0,0%,0 SFC,67.5 SFC,"IFNg Avg SFC [2, 4]: 44 SFC"
3521.0011 (QVTNVGGAV; listed as Homo sapiens),0,0%,0 SFC,0,0%,0 SFC,0,0,0%,0 SFC,0,0%,0 SFC,–,–
